Data taken from US20200222347A1, “ANTIMICROBIALS AND METHODS OF USE THEREOF” (priority 2013, published 2020).
Entries after “also recorded” stand apart in the source; their conditions may differ.

Experiments:
[1] = test system: normal human skin bacterial resident flora; test: Summary of the 4 Phase Testing at Loma Linda; type: in vivo
Experimental: A randomized double blinded study was performed at Loma Linda Medical School. It involved 4 phases over two years' time.

[2] = test system: skin stripped wounds infected with Pseudomonas aeruginosa (ATCC 27853); test: Histology of stripped, infected and treated skin wound, Example 6; details: 48 hours
[3] = test system: Propionibacterium acnes (1100; ATCC 6919); test: BALB/c mice intradermal infection, topical treatment, Example 9; type: in vivo; details: for effect on P. acnes CFU burden in mouse skin: 96 hours
Experimental: BALB/c mice were infected with Propionibacterium acnes via intradermal injection and treated topically with varying concentrations of a novel test compound, PCA, at 2, 24, 48 and 72 hours following challenge. Efficacy was evaluated by CFU analysis from skin samples harvested at 96 hours post challenge.
Female BALB/c mice, ordered from Harlan and weighing 17-19 g, were acclimated to housing conditions and handled in accordance with AUP number TP-18-13. The animals were acclimated for 4 days prior to bacterial challenge. Only animals deemed healthy and fully immunocompetent were included in this study. Cages were prepared with 2 mice per cage.
On Day −1, each mouse was anesthetized in an Isoflurane induction chamber and the lesion site was cleared of hair. An area of approximately 2.0 cm×2.0 cm of skin on the dorsal area of each mouse was cleared through use of the depilatory agent Nair®.
Cultures were grown for 96 hrs at 37° C. in an anaerobic atmosphere on TS agar plates supplemented with 5% sheep blood cells. The culture was aseptically swabbed and transferred to tubes of TS broth and allowed to grow for 72 hours. The cultures were diluted to provide challenge inoculum of approximately 6.0-7.0 log 10 CFU per 50 μL in PBS. On Day 0 each mouse was anesthetized using Isoflurane. Each animal on the study was administered 50 μL of the bacterial suspension via intradermal injection in the dorsal area that was previously denuded of hair. The final CFU count from the challenge suspension determined that 6.0 log 10 CFU per mouse were delivered.
The test treatment, PCA, was provided by the study Sponsor and formulated using sterile water. Treatments were administered topically in a dose volume of 0.1 mL. Treatments were given at 2, 24, 48 and 72 hours post challenge at 60 mg/kg (78 mM; Group 3), 30 mg/kg (39 mM; Group 4) or 15 mg/kg (19.5 mM; Group 5).
At 96 hours following challenge, mice were humanely euthanized and skin was aseptically removed from the infection site. Skin samples were placed in homogenation vials with 2.0 mL PBS, weighed and homogenized using a mini-bead beater. Homogenate was serially diluted and plated anaerobically on TSA agar plates for enumeration of colony forming units per gram of skin tissue.

[4] = test system: Klebssilla pneumonia ATCC4352; test: Paper disc test with water or propylene glycol, Example 10; type: cell-based
[5] = test system: Propionibacterium acnes; test: Human skin disinfection study, species analysis of cultures; type: in vivo; details: Phase IV
Experimental: Phase 1: The active test reagent was topically applied 1.54% PCA in sterile water to the anterior shoulder region. This 1.54% solution of PCA in water was used effectively in our prior animal wound studies. The controls were Chloroprep (2% Chlorhexidine in 70% isopropyl alcohol) and Betadine (9.0% to 12.0% available iodine in water). Cultures were taken before application and 20 minutes after application. The initial harvest was by a surface swab. Application was by soaked sponge, without force or scrubbing. The second harvest was performed with the back edge of a sterile knife blade scraping with pressure in attempt to maximize the harvest from the deeper sebaceous glands and hair follicles. The specimens were placed in culture media. Bacteriology was performed at WuXiAppTec in Marrietta, Ga.
Phase 2 included eleven medical students and was same method as Phase 1. However the PCA vehicle was changed to 70% isopropyl alcohol. This allowed a higher concentration of PCA than possible in sterile water, 10%. Phase 2a: The 70% isopropyl alcohol vehicle was tested for its bactericidal properties. […] In this way it was learned what specific bacterial strains PCA could eliminate or reduce.
Cultures were stored in ice and shipped in FedEx ice box to WuXiapptec in Marietta, Ga. for aerobic and anaerobic cultures and held for 21 days. […]

[6] = test system: all bacteria tested; test: In vitro antimicrobial susceptibility, whole panel; type: cell-based

**Q.** With O=C(O)c1ccc(O)c(O)c1 [PCA, Protocatechuic acid] as the compound, how does the “optimal dose to act as a human skin disinfectant” value ([1]; in vivo) read?
**A.** greater than 10%

**Q.** And the “removal of pathogens from human skin” value ([1]; solutions at 10% or higher)?
**A.** removed all pathogens

**Q.** And the “collagen between the epidermis and dermis” value ([2]; 25 mM)?
**A.** collagen proliferation between the epidermis and dermis; also recorded: collagen layer formation

**Q.** What about the dermal layer ([2]; 25 mM) of the same compound?
**A.** thickened

**Q.** What about the hair follicles ([2]; 25 mM) of the same compound?
**A.** prominent with multiple cellular lining

**Q.** What about the inflammation ([2]; 25 mM) of the same compound?
**A.** abundant inflammation

**Q.** What about the surface cellularity ([2]; 25 mM) of the same compound?
**A.** abundant and multiple cell layers

**Q.** What about the vascularity ([2]; 25 mM) of the same compound?
**A.** moderate vascularity

**Q.** And the dermal layer ([2]; 50 mM)?
**A.** thicker

**Q.** What about the hair follicles ([2]; 50 mM) of the same compound?
**A.** double layer of cells

**Q.** And the inflammation ([2]; 50 mM)?
**A.** increased in the dermis and below the muscle layer

**Q.** And the surface cellularity ([2]; 50 mM)?
**A.** covered with multiple layers of cells

**Q.** What about the vascularity ([2]; 50 mM) of the same compound?
**A.** increased vascularity

**Q.** What about the “tissue repair / healing response by histology” value ([2]; PCA 25 and 50 mM, C3G 100 and 200 mM) of the same compound?
**A.** stimulated tissue repair

**Q.** What about the “effect on P. acnes CFU burden in mouse skin” value (shortened to “effect on P. acnes CFU burden”) ([3]; 15 mg/kg (19.5 mM) topical) of the same compound?
**A.** no such effect; also recorded: statistically non-different

**Q.** What about the “effect on P. acnes CFU burden” value ([3]; 30 mg/kg (39 mM) topical) of the same compound?
**A.** no such effect; also recorded: statistically non-different

**Q.** What about the “reduction of CFU burden in skin vs untreated” value ([3]; 60 mg/kg (78 mM) topical at 2, 24, 48 and 72 hours, harvest 96 hours) of the same compound?
**A.** approximately 1 log 10

**Q.** And the “effect on P. acnes CFU burden” value ([3]; 60 mg/kg (78 mM) topical, P=0.0285 vs untreated)?
**A.** bacteriostatic effect; also recorded: significant reduction

**Q.** What about the “inhibition of growth under the sample” value ([4]; PPG) of the same compound?
**A.** I

**Q.** What about the zone of inhibition ([4]; PPG) of the same compound?
**A.** 3 mm

**Q.** What about the “inhibition of growth under the sample” value ([4]; Water) of the same compound?
**A.** I

**Q.** And the zone of inhibition ([4]; Water)?
**A.** 2 mm

**Q.** What about the “P. acnes growth after treatment” value ([5]; culture #14, 20 minutes) of the same compound?
**A.** no growth

**Q.** What about the “P. acnes growth after treatment” value ([5]; culture #19, 60 minutes) of the same compound?
**A.** no growth

**Q.** And the “antibiotic properties (summary)” value [6]?
**A.** broad spectrum antibiotic

**Q.** And the “overall effectiveness in the in vitro panel” value ([6]; 100 mM, carrier water, 18-24 hours for aerobes, 48 hours for anaerobes)?
**A.** effective against all bacteria tested
